According to US10457639B2, “Fluorescent regulators of RASSF1A expression and human cancer cell proliferation” (GEORGETOWN UNIVERSITY, priority 2008, dated 2019):

Tests used:
[1] = system: DNA methyltransferase (DNMT); assay: DNA methyltransferase activity assay (EpiQuik kit, nuclear extracts of treated PC-3 cells); type: cell-based, human; settings: 72 hours, 5 μM (FIG. 7 legend; method says 2 μM)
Method: Black bars: PC-3 cells were treated 72 hours with either mahanine or compound 6a at 5 μM or compound 6, 7, 7a, 8, or 9 at 15 μM and then assayed for DNMT activity using the DNMT activity kit from Epigentek. Data are mean of three independent experiments ±SEM. Grey bars: Densitometry from RT-PCR blot where the amount of RASSF1A mRNA re-expressed by mahanine treatment is normalized to 100%.
DNA methyltransferase activity assay. PC-3 cells were plated in complete growth media, treated with either mahanine or compound 6a at 2 μM or compound 6, 7, 7a, 8, 9, 10 at 15 μM for 3 days and then harvested. Nuclear extracts were prepared according to manufacturer's protocol (Nuclear extraction kit, Epigentek). DNMT activity was measured using an EpiQuik DNA methyltransferase activity assay kit (Epigentek). Results were expressed as percent DNMT activity compared to the DMSO control as 100%.
The levels of DNMT activity in treated versus untreated prostate cancer cells were measured using a DNMT assay kit from Epigentek. […] These reduced DNMT activities correlate with the pattern of RASSF1A induction described above (FIG. 7, grey bars). The data imply that inhibition of DNMT prevents hypermethylation of the RASSF1A promoter region and consequently restores RASSF1A.

[2] = system: human prostate tumor xenografts (PC-3); assay: PC-3 human prostate xenograft study; type: in vivo, mouse; settings: athymic Balb/c nude mice, 10 mg/kg IP every other day, over 25 days
Method: Male athymic Balb/c nude mice were injected with PC-3 cells and the resulting tumors allowed to grow for a week before dosing IP once a day every other day with 10 mg/kg compound 6a or DMSO control in 1:1 PEG/PBS. Data are presented as the mean±SEM (n=4).
Cell Culture for Xenograft. PC-3 cell line (ATCC, Manassas, Va.) was cultured in RPMI-1640 with L-glutamine (Mediatech Inc., Herdon, Va.) containing 5% fetal bovine serum (FBS), 2.5 mM L-glutamine at 37° C. with 5% CO2.
Xenograft Study. Male athymic Balb/c nude mice (18-22 g) were injected with 3×106 (0.3 mL) of the human prostate cancer cells (PC-3). The human prostate cancer cells were injected in the subcutaneous tissue of the right axillary region of the mice. One week after the injection, the mice were randomly sorted into two groups with four mice per group. A stock solution of compound 6a was obtained by dissolving 1 mg of compound in 1 μl DMSO. The stock was added to polyethylene glycol 400 (PEG) (Hampton) and PBS in a 1:1 ratio. The test concentrations were obtained by diluting with PEG/PBS. The tumor-bearing mice received an intraperitoneal injection (IP) with either 10 mg/kg of 6a or vehicle control once every other day for 4 weeks. At the same time, the tumor size of each mouse was measured by caliper and calculated by the formula: Length×width×height/2. […]

PC-3 cells = assay: BrdU labeling, DNA synthesis (Cell Proliferation ELISA BrdU); type: cell-based, human; settings: 5 μM compound, 24 hours
Method: PC-3 cells were plated in 96-well plates and treated with 5 μM of compound. After 24 hours, the cells were assayed for BrdU labeling using the Cell Proliferation ELISA BrdU kit from Roche; background BrdU incorporation levels (absent anti-BrdU-peroxidase solution) were subtracted and values were normalized to those of control untreated cells.
BrdU Labeling. For the BrdU experiment, PC-3 cells were seeded in 96-well plates at a density of 2×10^3 cells/well, treated with 5 μM of compound for 24 hr and assayed BrdU using the Cell Proliferation ELISA BrdU (chemiluminescence) (Roche Diagnostics, IN) kit according to the manufacturer's protocol. Briefly, 10 μL of 100 μM BrdU labeling solution was added to the cultured cells and were incubated for 1 hr at 37° C., the labeling solution was removed and the FixDenat solution provided with the kit was added for 30 min and incubated at room temperature. Cells were then incubated with anti-BrdU conjugated to peroxidase (1:1500) for 60 min. Finally, the plates were washed and 100 μL of substrate solution was added to each well, and the light emission was measured using a microplate luminometer (Harta Instruments, Inc., Gaithersburg, Md.).
To assess the levels of DNA synthesis within cells treated with mahanine compared to those treated with compounds 6-10, cultured cells were treated according to standard procedure with 5-bromo-2-deoxy-uridine (BrdU) after 24 hours of treatment (FIG. 2).

DNMT3b = molecular target: T1, DNMT3b (Homo sapiens, UniProt Q9UBC3); assay: Multiphoton laser imaging, DNMT3b antibody staining; type: cell-based; settings: PC-3 cells, 5 μM
T1 construct: endogenous in cells; host or cells: PC-3 human prostate cancer cells
Method: (A) Fluorescent spectrum of compound 6a; (B) PC-3 cells were treated with a 5 μM solution of compound 6a for 1 hr before being fixed and stained with propidium iodide and DNMT3b antibody; (C) Cells were treated with a 5 μM solution of compound 6a for 6 hr before fixation; (D) Cells were treated with a 5 μM solution of DMSO for 6 hr before fixation. The frames in each set of images are from left to right, top to bottom: propidium iodide; clear field; DNA methyltransferase 3b (DNMT3b); compound 6a or vehicle; and merged. Compound 6a was excited at 725 nm with a multiphoton laser and imaged with a 500-550 nm filter. Arrows indicate representative cells in which DNMT3b is solely in the cytoplasm.
Multiphoton laser imaging. After incubating slides with a fibronectin/cortactin solution for 30 minutes, PC-3 cells were plated onto the slides and incubated overnight. The cells were then treated with a 5 μM solution of compound 6a or DMSO control and incubated for 1-6 hour before washing with PBS. The slides were fixed with a 4% formaldehyde solution, washed with PBS then treated with propidium iodide (nuclear localization) and DNMT3a or DNMT3b. The compound was excited at 725 nm with a multiphoton laser and imaged with a 500-550 nm filter.
The dansyl moiety present in compound 6a allows it to visibly fluoresce at 552 nm when excited at 370 nm (FIG. 4A). […]

## COc1ccc2c(c1)[nH]c1c(C)c(OS(=O)(=O)c3cccc4c(N(C)C)cccc34)ccc12 [Compound 6a, 7-Methoxy-1-methyl-9H-carbazol-2-yl 5-(dimethylamino)naphthalene-1-sulfonate]
[1]
  DNMT activity versus DMSO control: most potent inhibition
[2]
  reduction of tumor volume compared to control: roughly 40%
PC-3 cells
  DNA synthetic ability (BrdU labeling): decrease in DNA synthetic ability
DNMT3b; one hour
  DNMT3b localization: a population of treated cells that have DNMT3b only in the cytoplasm
DNMT3b; six hours
  DNMT3b localization: majority of treated cells having DNMT3b only in the cytoplasm
